# Patent US8623990B2, “Polyester resin composition” (FUJIFILM Corporation, priority 2010, dated 2014)
# Assay: Measurement of pKa by absorption spectrum on addition of perchloric acid
# Format: physicochemical
# Details: in acetonitrile, 70% perchloric acid (solvent: acetic acid) added dropwise; proton adduct at nitrogen of triazine ring
# Experimental: Compound (2) was dissolved in acetonitrile to give an absorbance of 1 and to this solution, 70% perchloric acid (solvent: acetic acid) was added dropwise, thereby varying the pH. At this time, the absorption spectrum of solution was measured and based on the absorbance at λmax, the proportions of a triazine-free form and a proton adduct were calculated at each pH. From the point at which these values became equal, the pKa value was determined. Here, the triazine-free form indicates Compound (2) itself, and the proton adduct indicates a compound resulting from addition of a proton to the nitrogen atom of triazine ring of Compound (2). Compounds (21), (24), (120), (m-2), (m-3), (m-4), (m-21), (m-31), (m-20) and (m-1), and as comparative compounds, (Example A1) and (Example A2) were determined for the pKa value in the same manner. The absorption spectrum was measured using a spectrophotometer, UV-3600 (trade name), manufactured by Shimadzu Corporation, and the pH was measured using a pH meter, HM60G (trade name), manufactured by To a Denpa Kogyo. Incidentally, the absorbance is a value measured at the maximum absorption wavelength of each compound.
row,pKa,SMILES
1,-5,CCC(C)CCCCCC(CCCC(C)CC)COC(=O)c1ccc(-c2nc(-c3ccccc3O)nc(-c3ccccc3O)n2)cc1 (stereo not shown) [(24)]
2,-5,CC(CCOC(=O)c1ccc(-c2nc(-c3ccccc3O)nc(-c3ccccc3O)n2)cc1)CC(C)(C)C (stereo not shown) [(120)]
3,-5,Oc1ccccc1-c1nc(-c2cccc(Cl)c2)nc(-c2ccccc2O)n1 [(m-4)]
4,-5,CCCCC(CC)COC(=O)c1ccc(-c2nc(-c3ccccc3O)nc(-c3ccccc3O)n2)cc1 (stereo not shown) [Compound (21)]
